Data from the NIST ThermoML archive (doi:10.1021/je400486p).

Test: xn = mol fraction of the nth substance listed
Settings: 101.3 kPa, Liquid; for viscosity: Concentric cylinders viscometry; for mass density: Vibrating tube method

COCCOCCOCCOCCOC [2,5,8,11,14-pentaoxapentadecane] + CCC(C)O
Settings	mass density [kg/m3]	viscosity [mPa·s]
288.15 K, x2 = 0	1015.63	4.341
288.15 K, x2 = 0.1007	1006.23	4.092
288.15 K, x2 = 0.2003	995.702	3.792
288.15 K, x2 = 0.3015	983.46	3.531
288.15 K, x2 = 0.3991	969.921	3.342
288.15 K, x2 = 0.5011	953.53	3.157
288.15 K, x2 = 0.6024	934.399	2.972
288.15 K, x2 = 0.6997	912.674	2.853
288.15 K, x2 = 0.7998	885.897	2.874
288.15 K, x2 = 0.9004	852.63	3.166
293.15 K, x2 = 0	1011	3.834
293.15 K, x2 = 0.1007	1001.61	3.582
293.15 K, x2 = 0.2003	991.093	3.32
293.15 K, x2 = 0.3015	978.877	3.099
293.15 K, x2 = 0.3991	965.365	2.941
293.15 K, x2 = 0.5011	949.011	2.776
293.15 K, x2 = 0.6024	929.939	2.61
293.15 K, x2 = 0.6997	908.32	2.498
293.15 K, x2 = 0.7998	881.561	2.497
293.15 K, x2 = 0.9004	848.418	2.705
298.15 K, x2 = 0	1006.36	3.38
298.15 K, x2 = 0.1007	996.991	3.158
298.15 K, x2 = 0.2003	986.495	2.937
298.15 K, x2 = 0.3015	974.305	2.75
298.15 K, x2 = 0.3991	960.825	2.603
298.15 K, x2 = 0.5011	944.498	2.461
298.15 K, x2 = 0.6024	925.479	2.316
298.15 K, x2 = 0.6997	903.877	2.21
298.15 K, x2 = 0.7998	877.228	2.187
298.15 K, x2 = 0.9004	844.144	2.337
303.15 K, x2 = 0	1001.73	3.004
303.15 K, x2 = 0.1007	992.377	2.805
303.15 K, x2 = 0.2003	981.894	2.627
303.15 K, x2 = 0.3015	969.723	2.472
303.15 K, x2 = 0.3991	956.258	2.344
303.15 K, x2 = 0.5011	939.966	2.205
303.15 K, x2 = 0.6024	920.978	2.068
303.15 K, x2 = 0.6997	899.43	1.967
303.15 K, x2 = 0.7998	872.81	1.933
303.15 K, x2 = 0.9004	839.81	2.037
308.15 K, x2 = 0	997.104	2.691
308.15 K, x2 = 0.1007	987.755	2.513
308.15 K, x2 = 0.2003	977.28	2.363
308.15 K, x2 = 0.3015	965.119	2.229
308.15 K, x2 = 0.3991	951.674	2.111
308.15 K, x2 = 0.5011	935.407	1.984
308.15 K, x2 = 0.6024	916.445	1.859
308.15 K, x2 = 0.6997	894.917	1.762
308.15 K, x2 = 0.7998	868.357	1.72
308.15 K, x2 = 0.9004	835.418	1.786
313.15 K, x2 = 0	992.481	2.426
313.15 K, x2 = 0.1007	983.135	2.269
313.15 K, x2 = 0.2003	972.669	2.139
313.15 K, x2 = 0.3015	960.509	2.022
313.15 K, x2 = 0.3991	947.072	1.914
313.15 K, x2 = 0.5011	930.813	1.796
313.15 K, x2 = 0.6024	911.86	1.681
313.15 K, x2 = 0.6997	890.367	1.59
313.15 K, x2 = 0.7998	863.83	1.54
313.15 K, x2 = 0.9004	830.95	1.575
318.15 K, x2 = 0	987.859	2.199
318.15 K, x2 = 0.1007	978.511	2.069
318.15 K, x2 = 0.2003	968.041	1.949
318.15 K, x2 = 0.3015	955.883	1.836
318.15 K, x2 = 0.3991	942.446	1.73
318.15 K, x2 = 0.5011	926.193	1.629
318.15 K, x2 = 0.6024	907.25	1.529
318.15 K, x2 = 0.6997	885.759	1.445
318.15 K, x2 = 0.7998	859.246	1.385
318.15 K, x2 = 0.9004	826.396	1.397
323.15 K, x2 = 0	983.234	2.006
323.15 K, x2 = 0.1007	973.877	1.892
323.15 K, x2 = 0.2003	963.397	1.787
323.15 K, x2 = 0.3015	951.237	1.687
323.15 K, x2 = 0.3991	937.792	1.591
323.15 K, x2 = 0.5011	921.533	1.495
323.15 K, x2 = 0.6024	902.591	1.402
323.15 K, x2 = 0.6997	881.097	1.32
323.15 K, x2 = 0.7998	854.581	1.259
323.15 K, x2 = 0.9004	821.735	1.243
